From patent US9738634B2, “Heterocyclic amide compound and herbicide” (SYNGENTA PARTICIPATIONS AG, priority 2013, dated 2017)

How the values were obtained:
Assay type in all cases: in vivo
Details in all cases: treatment dosage 320 g/ha
birds-eye speedwell [1] = experiment: Test Example 3: weedkilling efficacy through soil treatment; p: birds-eye speedwell
In short: (§1)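 Crop and weed responses were judged three weeks after a uniform surface spray of the water-diluted emulsion at the given g/ha rate. Seeds sat beneath about 1.5 cm of sterilized diluvial soil, and boxes stood in a greenhouse at 25 to 30° C.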

corn [2] = experiment: Test Example 4: foliar treatment, effect on crop; c: corn
In short: (§2)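 Seeds are spot-sown into sterilized diluvial soil and covered with about 1.5 cm of soil. After 14 days' greenhouse growth at 25 to 30° C, plants are sprayed on stems and leaves with diluted emulsion at the stated g/ha rate, then scored at 3 weeks.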

transplanted rice = experiment: Test Example 1: preemergent weed treatment in the submerged state, effect on crop; a: transplanted rice
In short: (§3)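 Alluvial soil in Wagner pots flooded to 4 cm; barnyard grass, bulrush and oval-leafed pondweed seeds sown, then 2.5-leaf rice seedlings transplanted. Same day, emulsified compound diluted in water to set g/ha dosages and applied to water surface; greenhouse 25–30 °C, effect scored by criteria after 3 weeks.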

common wind-grass [3] = experiment: Test Example 4: weedkilling efficacy by foliar treatment; J: common wind-grass
In short: as §2

beet [4] = experiment: Test Example 3: soil treatment, effect on crop; f: beet
In short: as §1

bulrush [5] = experiment: Test Example 1: weedkilling efficacy, preemergent weed treatment in the submerged state; B: bulrush
In short: as §3

crabgrass [6] = experiment: Test Example 3: weedkilling efficacy through soil treatment; D: crabgrass
In short: as §1

barnyard grass [7] = experiment: Test Example 2: weedkilling efficacy, growth period weed treatment in the submerged state; A: barnyard grass
In short: (§4)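 First, alluvial soil in pots is flooded to 4 cm and mixed seed is sown. Next, plants grow in a greenhouse at 25 to 30° C until the 1-2 leaf stage. Then diluted emulsion is applied onto the water surface at the given g/ha rate, and injury is assessed after 3 weeks.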

black-grass [8] = experiment: Test Example 3: weedkilling efficacy through soil treatment; H: black-grass
In short: as §1

chickweed [9] = experiment: Test Example 4: weedkilling efficacy by foliar treatment; N: chickweed
In short: as §2

wheat [10] = experiment: Test Example 3: soil treatment, effect on crop; e: wheat
In short: as §1

redroot pigweed [11] = experiment: Test Example 3: weedkilling efficacy through soil treatment; L: redroot pigweed
In short: as §1

wheat [12] = experiment: Test Example 4: foliar treatment, effect on crop; e: wheat
In short: as §2

wild oat [13] = experiment: Test Example 3: weedkilling efficacy through soil treatment; G: wild oat
In short: as §1

birds-eye speedwell [14] = experiment: Test Example 4: weedkilling efficacy by foliar treatment; p: birds-eye speedwell
In short: as §2

rapeseed [15] = experiment: Test Example 3: soil treatment, effect on crop; g: rapeseed
In short: as §1

bulrush [16] = experiment: Test Example 2: weedkilling efficacy, growth period weed treatment in the submerged state; B: bulrush
In short: as §4

catchweed [17] = experiment: Test Example 3: weedkilling efficacy through soil treatment; O: catchweed
In short: as §1

catchweed [18] = experiment: Test Example 4: weedkilling efficacy by foliar treatment; O: catchweed
In short: as §2

Indian mallow [19] = experiment: Test Example 3: weedkilling efficacy through soil treatment; K: Indian mallow
In short: as §1

wild oat [20] = experiment: Test Example 4: weedkilling efficacy by foliar treatment; G: wild oat
In short: as §2

fig-leafed goosefoot [21] = experiment: Test Example 4: weedkilling efficacy by foliar treatment; M: fig-leafed goosefoot
In short: as §2

rapeseed [22] = experiment: Test Example 4: foliar treatment, effect on crop; g: rapeseed
In short: as §2

common wind-grass [23] = experiment: Test Example 3: weedkilling efficacy through soil treatment; J: common wind-grass
In short: as §1

corn [24] = experiment: Test Example 3: soil treatment, effect on crop; c: corn
In short: as §1

directly sown rice [25] = experiment: Test Example 3: soil treatment, effect on crop; b: directly sown rice
In short: as §1

chickweed [26] = experiment: Test Example 3: weedkilling efficacy through soil treatment; N: chickweed
In short: as §1

Indian mallow [27] = experiment: Test Example 4: weedkilling efficacy by foliar treatment; K: Indian mallow
In short: as §2

oval-leafed pondweed [28] = experiment: Test Example 1: weedkilling efficacy, preemergent weed treatment in the submerged state; C: oval-leafed pondweed
In short: as §3

fig-leafed goosefoot [29] = experiment: Test Example 3: weedkilling efficacy through soil treatment; M: fig-leafed goosefoot
In short: as §1

green foxtail [30] = experiment: Test Example 3: weedkilling efficacy through soil treatment; E: green foxtail
In short: as §1

oval-leafed pondweed [31] = experiment: Test Example 2: weedkilling efficacy, growth period weed treatment in the submerged state; C: oval-leafed pondweed
In short: as §4

beet [32] = experiment: Test Example 4: foliar treatment, effect on crop; f: beet
In short: as §2

black-grass [33] = experiment: Test Example 4: weedkilling efficacy by foliar treatment; H: black-grass
In short: as §2

barnyard grass [34] = experiment: Test Example 1: weedkilling efficacy, preemergent weed treatment in the submerged state; A: barnyard grass
In short: as §3

green foxtail [35] = experiment: Test Example 4: weedkilling efficacy by foliar treatment; E: green foxtail
In short: as §2

Italian ryegrass [36] = experiment: Test Example 4: weedkilling efficacy by foliar treatment; I: Italian ryegrass
In short: as §2

directly sown rice [37] = experiment: Test Example 4: foliar treatment, effect on crop; b: directly sown rice
In short: as §2

barnyard grass [38] = experiment: Test Example 4: weedkilling efficacy by foliar treatment; F: barnyard grass
In short: as §2

soybean [39] = experiment: Test Example 3: soil treatment, effect on crop; d: soybean
In short: as §1

barnyard grass [40] = experiment: Test Example 3: weedkilling efficacy through soil treatment; F: barnyard grass
In short: as §1

crabgrass [41] = experiment: Test Example 4: weedkilling efficacy by foliar treatment; D: crabgrass
In short: as §2

Italian ryegrass [42] = experiment: Test Example 3: weedkilling efficacy through soil treatment; I: Italian ryegrass
In short: as §1

soybean [43] = experiment: Test Example 4: foliar treatment, effect on crop; d: soybean
In short: as §2

redroot pigweed [44] = experiment: Test Example 4: weedkilling efficacy by foliar treatment; L: redroot pigweed
In short: as §2

With `CCc1cc(F)nc(NC(=O)C(C)(C)N2COC(C)=C(c3ccccc3)C2=O)c1` [B-2-39] the “P (birds-eye speedwell) weedkilling efficacy grade” value (birds-eye speedwell [1]) was 5 (weed kill ratio 90% or more, (practically complete withering)), the “c (corn) effect on crop grade” value (corn [2]) was 4 (weed kill ratio 70% or more, less than 90%) and the “a (transplanted rice) effect on crop grade” value (transplanted rice) was 1 (weed kill ratio 5% or more, less than 20%). For the same molecule, the “J (common wind-grass) weedkilling efficacy grade” value (common wind-grass [3]) was 5 (weed kill ratio 90% or more, (practically complete withering)), the “f (beet) effect on crop grade” value (beet [4]) was 3 (weed kill ratio 40% or more, less than 70%) and the “B (bulrush) weedkilling efficacy grade” value (bulrush [5]) was 5 (weed kill ratio 90% or more, (practically complete withering)). For the same molecule, the “D (crabgrass) weedkilling efficacy grade” value (crabgrass [6]) was 5 (weed kill ratio 90% or more, (practically complete withering)), the “A (barnyard grass) weedkilling efficacy grade” value (barnyard grass [7]) was 5 (weed kill ratio 90% or more, (practically complete withering)) and the “H (black-grass) weedkilling efficacy grade” value (black-grass [8]) was 5 (weed kill ratio 90% or more, (practically complete withering)). For the same molecule, the “N (chickweed) weedkilling efficacy grade” value (chickweed [9]) was 4 (weed kill ratio 70% or more, less than 90%), the “e (wheat) effect on crop grade” value (wheat [10]) was 0 (weed kill ratio 5% or less (practically no effect)) and the “L (redroot pigweed) weedkilling efficacy grade” value (redroot pigweed [11]) was 3 (weed kill ratio 40% or more, less than 70%). For the same molecule, the “e (wheat) effect on crop grade” value (wheat [12]) was 0 (weed kill ratio 5% or less (practically no effect)), the “G (wild oat) weedkilling efficacy grade” value (wild oat [13]) was 5 (weed kill ratio 90% or more, (practically complete withering)) and the “P (birds-eye speedwell) weedkilling efficacy grade” value (birds-eye speedwell [14]) was 5 (weed kill ratio 90% or more, (practically complete withering)). For the same molecule, the “g (rapeseed) effect on crop grade” value (rapeseed [15]) was 4 (weed kill ratio 70% or more, less than 90%), the “B (bulrush) weedkilling efficacy grade” value (bulrush [16]) was 5 (weed kill ratio 90% or more, (practically complete withering)) and the “O (catchweed) weedkilling efficacy grade” value (catchweed [17]) was 4 (weed kill ratio 70% or more, less than 90%). The “O (catchweed) weedkilling efficacy grade” value (catchweed [18]) was 4 (weed kill ratio 70% or more, less than 90%), the “K (Indian mallow) weedkilling efficacy grade” value (Indian mallow [19]) was 2 (weed kill ratio 20% or more, less than 40%) and the “G (wild oat) weedkilling efficacy grade” value (wild oat [20]) was 4 (weed kill ratio 70% or more, less than 90%). For the same molecule, the “M (fig-leafed goosefoot) weedkilling efficacy grade” value (fig-leafed goosefoot [21]) was 5 (weed kill ratio 90% or more, (practically complete withering)), the “g (rapeseed) effect on crop grade” value (rapeseed [22]) was 4 (weed kill ratio 70% or more, less than 90%) and the “J (common wind-grass) weedkilling efficacy grade” value (common wind-grass [23]) was 5 (weed kill ratio 90% or more, (practically complete withering)). The “c (corn) effect on crop grade” value (corn [24]) was 0 (weed kill ratio 5% or less (practically no effect)), the “b (directly sown rice) effect on crop grade” value (directly sown rice [25]) was 4 (weed kill ratio 70% or more, less than 90%) and the “N (chickweed) weedkilling efficacy grade” value (chickweed [26]) was 4 (weed kill ratio 70% or more, less than 90%). The “K (Indian mallow) weedkilling efficacy grade” value (Indian mallow [27]) was 4 (weed kill ratio 70% or more, less than 90%), the “C (oval-leafed pondweed) weedkilling efficacy grade” value (oval-leafed pondweed [28]) was 5 (weed kill ratio 90% or more, (practically complete withering)) and the “M (fig-leafed goosefoot) weedkilling efficacy grade” value (fig-leafed goosefoot [29]) was 4 (weed kill ratio 70% or more, less than 90%). For the same molecule, the “E (green foxtail) weedkilling efficacy grade” value (green foxtail [30]) was 5 (weed kill ratio 90% or more, (practically complete withering)), the “C (oval-leafed pondweed) weedkilling efficacy grade” value (oval-leafed pondweed [31]) was 5 (weed kill ratio 90% or more, (practically complete withering)) and the “f (beet) effect on crop grade” value (beet [32]) was 4 (weed kill ratio 70% or more, less than 90%). The “H (black-grass) weedkilling efficacy grade” value (black-grass [33]) was 5 (weed kill ratio 90% or more, (practically complete withering)), the “A (barnyard grass) weedkilling efficacy grade” value (barnyard grass [34]) was 5 (weed kill ratio 90% or more, (practically complete withering)) and the “E (green foxtail) weedkilling efficacy grade” value (green foxtail [35]) was 5 (weed kill ratio 90% or more, (practically complete withering)). The “I (Italian ryegrass) weedkilling efficacy grade” value (Italian ryegrass [36]) was 5 (weed kill ratio 90% or more, (practically complete withering)), the “b (directly sown rice) effect on crop grade” value (directly sown rice [37]) was 4 (weed kill ratio 70% or more, less than 90%) and the “F (barnyard grass) weedkilling efficacy grade” value (barnyard grass [38]) was 5 (weed kill ratio 90% or more, (practically complete withering)). The “d (soybean) effect on crop grade” value (soybean [39]) was 0 (weed kill ratio 5% or less (practically no effect)), the “F (barnyard grass) weedkilling efficacy grade” value (barnyard grass [40]) was 5 (weed kill ratio 90% or more, (practically complete withering)) and the “D (crabgrass) weedkilling efficacy grade” value (crabgrass [41]) was 5 (weed kill ratio 90% or more, (practically complete withering)). The “I (Italian ryegrass) weedkilling efficacy grade” value (Italian ryegrass [42]) was 5 (weed kill ratio 90% or more, (practically complete withering)), the “d (soybean) effect on crop grade” value (soybean [43]) was 4 (weed kill ratio 70% or more, less than 90%) and the “L (redroot pigweed) weedkilling efficacy grade” value (redroot pigweed [44]) was 3 (weed kill ratio 40% or more, less than 70%).
